Source: patent publication US6630128B1, “Porphyrin derivatives their use in photodynamic therapy and medical devices containing them” (Destiny Pharma Limited, priority 1999, dated 2003)
Like-named read-outs stand apart in the source and are kept apart here.

Columns and labels:
[1] = Singlet oxygen quantum yields (singlet oxygen phosphorescence at 1270 nm); type: physicochemical; details: for quantum yield of singlet oxygen production, ΦΔ (cross-calibration of reference materials): cross-calibrated against TPP ΦΔ=0.58, present work
Protocol: The singlet oxygen quantum yields were determined by the direct measurement of singlet oxygen phosphorescence at 1270 nm. Samples were excited using the third harmonic of a Q-switched Nd:YAG (neodymium: yttrium-aluminium-garnet) Spectra Physics GCR-150-10 laser, operating at an excitation wavelength of 355 nm. A small fraction of the laser output was passed through a solution state filter containing aqueous cobalt (II) sulphate (CoSO4) to remove residual 532 and 1064 nm radiation and then down a 8 mm diameter liquid light guide (Oriel). For the measurements the end of the light guide was held against a 1 cm×1 cm fluorescence cuvette (Hellma) holding the sample. During the course of the experiments the incident laser energy for each measurement was determined using a pyroelectric detector held behind the sample. This detector was calibrated at the start of the experiment using a second calibrated energy meter (Gentec ED100). The laser energy was adjusted by placing cells containing aqueous sodium nitrite between the CoSO4 filter and the light guide. Typical pulse energies used were in the range of 25-500 μJ per pulse. Shot to shot noise was estimated to be <10% and sets of 20 shots gave an average value within <3%.
Phosphorescence from the sample was collected and passed through an interference filter centred at 1270 nm available from (Infra Red Engineering Ltd) and then focused onto the active area of a liquid nitrogen cooled germanium photodiode (North Coast EO-817P). The output from this device was AC coupled to a digital oscilloscope (Tektronix TDS-320) which digitised and averaged the transients. Typically 20 laser shots were used for each sample. The averaged data was transferred to a PC where it was stored and analysed.
A stock solution of each of the title compounds of Examples 67 to 81 was prepared by dissolving a small sample of the respective title compound in approximately 5 ml of toluene (Fisher Scientific, Analytical grade). The exact concentrations of the stock solution was not determined.
A working solution of each of the title compounds of Examples 67 to 81 was prepared by diluting the respective stock solution with toluene to give an absorbance of 0.100±0.005 at 355 nm when placed in a ultraviolet/visible spectrometer (ATI-Unicam UV-2) compared to a reference cell containing the pure toluene solvent. The ultraviolet/visible spectrum of each sample was also recorded over the range 300-700 nm.
All of the data were recorded at ambient temperature, 20-23° C., and the solutions were aerated. The singlet oxygen emission decay was recorded for each sample using 5 laser energies and the data for each measurement were fitted to an exponential decay of the form I(t)=A.exp(−t/τ), where I(t) is the measured intensity of singlet oxygen phosphorescence at time t, A is the intensity extrapolated back to t=0 (ie when the laser fires), and τ is the lifetime of singlet oxygen. A typical decay for the title compound of Example 78 in toluene excited at 355 nm using a pulse energy of 365 μJ, where A=19.6 and τ=27.8 μs, is shown in FIG. 2.
A plot of A versus the incident laser energy was drawn for each sample and the slope determined. The slope of such a graph is proportional to the singlet oxygen quantum yield. An example of a plot showing the linear relationship between the singlet oxygen emission intensity and the laser energy for the title compound of Example 78 and meso-tetraphenylporphyrin (TPP) is shown in FIG. 3.
The experiments were carried out using batches of 5 samples of the working solution of each of the title compounds of 67 to 81 plus one reference sample meso-tetraphenylporphyrin (TPP). Each run was repeated at least once. The data sets obtained for each sample were within ±5% of the mean value.
The dominant sources of error in the experiment include the shot-to-shot fluctuations in the laser and the difference in absorbances of the samples at the excitation wavelength. The values have an error of ±10%. […]

[2] = reference values from Handbook of Photochemistry Ed 2; not measured in this work; cited from earlier work
[3] = literature values (Rossbroich et al. 1985; Wilkinson et al. 1993); cited from earlier work
[4] = Fluorescence quantum yields (corrected emission spectra, relative to TPP); type: physicochemical; details: excitation wavelength 355 nm, emission 550-800 nm
Protocol: Mass spectra were recorded on a Finnigan MAT TSQ 700 triple quadrupole mass spectrometer equipped with an […]. The matrix-assisted laser desorption/ionization mass spectra of the porphyrins were obtained using a dithranol matrix. FAB-MS spectra were obtained using a 3-nitrobenzyl alcohol (NOBA) matrix. ^1H-NMR spectra were measured at 60 MHz on a Jeol JNM-PMX60 spectrometer, at 270 MHz on a Jeol EX 270 spectrometer and at 300 MHx on a Varian Gemini-300 spectrometer in CDCl3 using TMS as an internal reference. Ultraviolet/visible spectra of solutions of compounds in tetrahydrofuran (THF) or toluene were measured using a Hitachi U-3000 spectrophotometer or a ATI-Unicam UV-2 spectrophotometer. Reflectance-absorbance infra red (RAIR) spectra were recorded on a BIO-RAD FTS 165 spectrophotometer. Fluorescence emission spectra were recorded using a Spex Fluorolog 3 spectrophotometer at an excitation wavelength of 355 nm, emission at 550 to 800 nm, with a bandpass of 2 nm.
The emission spectra were recorded using a Spex Fluorolog 3, excitation wavelength=355 nm, emission 550-800 nm, with a bandpass of 2 nm. A spectrum was recorded for each of the title compounds of Examples 67 to 81.
The fluorescence quantum yield for each of the title compounds of Examples 67 to 81 was determined by measuring the integral of the corrected emission spectra for each compound and calculated relative to TPP=0.11 (Handbook of Photochemistry Ed 2, Murov, Carmichael and Hug, Dekker 1993). The fluorescence quantum yield for each of the title compounds of Examples 67 to 81 are listed in Table 1; values for Zn TPP and Mg TPP are included in Table 1 for reference but they were not measured in this work.

| Structure (SMILES) | quantum yield of singlet oxygen production, ΦΔ (cross-calibration of reference materials) [1] | Quantum yield of fluorescence, relative to TPP = 0.11 [2] | quantum yield of singlet oxygen production, ΦΔ, literature value [3] | ΦΔ (singlet oxygen quantum yield) ([1]; aerated toluene, excitation 355 nm, 20-23° C., relative to TPP ΦΔ=0.58) | Quantum yield of fluorescence, relative to TPP = 0.11 [4] |
| --- | --- | --- | --- | --- | --- |
| C1=Cc2nc1c(-c1ccccc1)c1ccc([n-]1)c(-c1ccccc1)c1nc(c(-c3ccccc3)c3ccc([n-]3)c2-c2ccccc2)C=C1.[Zn+2] [Zn TPP, zinc tetraphenylporphyrin] | 0.77±0.07 | 0.04 | 0.73 | – | – |
| C1=Cc2nc1c(-c1ccccc1)c1ccc([n-]1)c(-c1ccccc1)c1nc(c(-c3ccccc3)c3ccc([n-]3)c2-c2ccccc2)C=C1.[Mg+2] [Mg TPP, magnesium tetraphenylporphyrin] | – | 0.15 | – | – | – |
| [Zn+2].c1ccc2c(c1)-c1nc-2nc2[n-]c(nc3nc([n-]c4nc(n1)-c1ccccc1-4)-c1ccccc1-3)c1ccccc21 [zinc phthalocyanine, reference compound] | 0.46±0.05 | – | 0.50 | – | – |
| C1=Cc2nc1c(-c1ccccc1)c1ccc([nH]1)c(-c1ccccc1)c1nc(c(-c3ccccc3)c3ccc([nH]3)c2-c2ccccc2)C=C1 [TPP, meso-tetraphenylporphyrin] | – | 0.11 | 0.58 | – | – |
| C=CCCOCCCCCCOc1ccc(-c2c3nc(c(-c4cc(OCCCCCCCCCCCCCCCC)c(OCCCCCCCCCCCCCCCC)c(OCCCCCCCCCCCCCCCC)c4)c4ccc([n-]4)c(-c4cc(OCCCCCCCCCCCCCCCC)c(OCCCCCCCCCCCCCCCC)c(OCCCCCCCCCCCCCCCC)c4)c4nc(c(-c5cc(OCCCCCCCCCCCCCCCC)c(OCCCCCCCCCCCCCCCC)c(OCCCCCCCCCCCCCCCC)c5)c5ccc2[n-]5)C=C4)C=C3)cc1.[Zn+2] [Example 71, 5-[4-(6-but-3-Enyloxy-hexyloxy)-phenyl]-10,15,20-tris-(3,4,5-trihexadecyloxy-phenyl)-porphyrinato Zinc] | – | – | – | 0.72 ± 0.07 | 0.04 |
